From patent US4956294A, “Culture of Streptoverticillium synroense for producing an antibacterial” (Merck & Co., Inc., priority 1989, dated 1990)

What was measured:
[1] = system: Prot. mirabilis Gm^r 2830; experiment: Agar dilution, trypticase soy agar; settings: Proteus mirabilis, 20 h
Ser. marcescens 2840 = experiment: Agar dilution, antagonist-free medium; settings: Serratia marcescens, 2840, 20 h
Prot. morganii Sm^r 2833 = experiment: Agar dilution, trypticase soy agar; settings: Morganella morganii, 20 h
[2] = system: B. fragilis NCCLS control strain 4419; experiment: Anaerobic agar dilution, Wilkens-Chalgren agar; assay type: cell-based; settings: Bacteroides fragilis, 48 h
B. asaccharolyticus 4271 = experiment: Anaerobic agar dilution, Wilkens-Chalgren agar; assay type: cell-based; settings: Porphyromonas asaccharolytica, 4271, 48 h
Proteus vulgaris 1012 = experiment: Inhibition zone, agar plate; assay type: cell-based
K. pneumoniae K1+ 4354 = experiment: Agar dilution, trypticase soy agar; settings: Klebsiella pneumoniae, 20 h
[3] = system: Erwinia atroseptica 1159 (4446); experiment: Inhibition zone, agar plate; assay type: cell-based; settings: Pectobacterium atrosepticum, 15λ, read-out: Inhibition Zone Diameter

Question: For `C[C@H](CNC(=O)[C@H]1N=C(c2cccc(O)c2O)O[C@@H]1C)C(=O)N[C@@H]1CCCN(O)C1=O` [L-654,040, 2-(2,3-dihydroxyphenyl)-4,5-dihydro-N-[3-[(1-hydroxy-2-oxo-3(R)-piperidinyl)-amino]-2(R)-methyl-3-oxopropyl]-5R-methyl-4S-oxazolecarboxamide], which MIC [1] is on record?
Answer: > 128 µg/mL

Question: What about the MIC (Ser. marcescens 2840) of the same compound?
Answer: > 256 µg/mL

Question: What about the MIC (Prot. morganii Sm^r 2833) of the same compound?
Answer: > 128 µg/mL

Question: What about the MIC [2] of the same compound?
Answer: > 128 µg/mL

Question: What about the MIC (B. asaccharolyticus 4271) of the same compound?
Answer: > 128 µg/mL

Question: And the zone of inhibition at 500 µg/mL (Proteus vulgaris 1012; Proteus vulgaris, 1012, read-out: Inhibition Zone Diameter)?
Answer: 24 mm

Question: And the zone of inhibition at 2000 µg/mL (Proteus vulgaris 1012; Proteus vulgaris, 1012, 2 mg/ml in distilled H2O, 15λ, read-out: Inhibition Zone Diameter)?
Answer: 34 mm

Question: And the MIC (K. pneumoniae K1+ 4354)?
Answer: > 128 µg/mL

Question: What about the zone of inhibition at 500 µg/mL ([3]; 0.5 mg/ml in distilled H2O) of the same compound?
Answer: 0 mm

Question: What about the zone of inhibition at 2000 µg/mL ([3]; 2 mg/ml in distilled H2O) of the same compound?
Answer: 0 mm
